Literature values as cited in patent US8703192B2, “Dosage form containing pantoprazole as active ingredient” (Takeda GmbH, priority 2003, dated 2014).

Conditions: in comparison to pantoprazole itself or to pantoprazole sodium sesquihydrate

- stability properties: improved stability properties
Compound: COc1ccnc(C[S+]([O-])c2nc3cc(OC(F)F)ccc3[n-]2)c1OC.COc1ccnc(C[S+]([O-])c2nc3cc(OC(F)F)ccc3[n-]2)c1OC.O.O.[Mg+2] (stereo not shown) [Magnesium bis[5-[difluoromethoxy]-2-[[3,4-dimethoxy-2-pyridinyl]-methyl]sulfinyl]-1H-benzimidazolide]dihydrate]
